In patent publication US20230181556A1, “USE OF PSYCHOTROPIC DRUGS FOR THE TREATMENT OF CORONAVIRUS INFECTIONS” (priority 2020, published 2023):

System: SARS-CoV-2 clinical isolates D614G
Format: cell-based

| SMILES | IC50 [µM] |
| --- | --- |
| CC(CN1c2ccccc2Sc2ccccc21)N(C)C (centres unmarked) [Promethazine] | 9.22 |
| CN1CCCC(n2nc(Cc3ccc(Cl)cc3)c3ccccc3c2=O)CC1 (centres unmarked) [Azelastine] | 5.75 |
